In brackets after ≈: the same amount, converted by molar mass. Like-named read-outs stand apart in the source and are kept apart here.
Experiments:
[1] = RAW264.7 cytotoxicity (CellTiter-Glo); format: cell-based, murine; conditions: mouse, RAW264.7 macrophage-like cells
Experimental: The RAW264.7 cell line was cultured in DMEM supplemented with 10% FBS, 2-mM L-glutamine, 100-U/mL penicillin and 100-µg/mL streptomycin at 37°C and 5% CO2. Cells were seeded on black, clear-bottom 96-well plates at 2.5 × 10^5 cells/mL. Test compounds and reference compounds (BDQ and tamoxifen) were added in nine twofold serial dilutions in 100% DMSO with a top concentration of 25 µM. The plate setup included high (no growth inhibition) and low (100% growth inhibition) controls in columns 12 and 1, respectively. Medium without cell suspension was added to the low control wells. Final DMSO concentration reached 1% for test and control wells. Plates were incubated for 60 hours at 37°C and 5% CO2. Before adding the readout reagent, plates were equilibrated at room temperature for 30 min. The CellTiter-Glo version 2.0 Assay (Promega, cat. #G7572) was then added to test wells in a 1:1 ratio and mixed for 2 min on an orbital shaker. The plate was incubated for 10 min at RT to stabilize the luminescent signal. The luminescence was recorded using Glomax Discover microplate reader (Promega). Cell viability was determined by normalization of the recorded signal and establishment of the 50% cytotoxicity concentration based on the non-linear regression curve analysis (GraphPad Prism version 9). The assay was performed in duplicate in two independent experiments.

Mtb H37Ra^lux = assay: microbe, parasite or virus in culture; format: cell-based, Mycobacterium tuberculosis; conditions: for MIC50: Mycobacterium tuberculosis, H37RA
[2] = molecular target: Mycobacterium tuberculosis mycothione reductase (MtrMtb) (Mycobacterium tuberculosis, UniProt P9WHH3); assay: MtrMtb luminescence-coupled enzymatic assay, confirmation screen (11-point dose-response); format: biochemical
[3] = test system: Mtb H37Ra^lux in RAW264.7 murine macrophages; assay: microbe, parasite or virus in culture; format: cell-based, Mycobacterium tuberculosis; conditions: for MIC50: Mycobacterium tuberculosis, H37RA, 60 h
[4] = sulfonylamine series, fragment molecules, reference compounds
[5] = read-out: MIC50 (µM) Mtb H37Ra^lux
[6] = sulfonylamine series, fragment molecules, reference compounds, read-out: IC50 (µM) MtrMtb
[7] = read-out: RAW264.7 MIC50 (µM) (Mtb H37Ra^lux)
[8] = morpholine series, acute cellular toxicity, unit not in this head
[9] = read-out: MIC50 (Mtb H37Ra^lux)
[10] = read-out: RAW264.7 MIC50 (Mtb H37Ra^lux)
[11] = morpholine series, average IC50 in the confirmation screen (dose-response), unit not in this head, µM, read-out: qIC50 (MtrMtb)

Mycobacterium tuberculosis mycothione reductase (MtrMtb), sequence (P9WHH3 whole entry): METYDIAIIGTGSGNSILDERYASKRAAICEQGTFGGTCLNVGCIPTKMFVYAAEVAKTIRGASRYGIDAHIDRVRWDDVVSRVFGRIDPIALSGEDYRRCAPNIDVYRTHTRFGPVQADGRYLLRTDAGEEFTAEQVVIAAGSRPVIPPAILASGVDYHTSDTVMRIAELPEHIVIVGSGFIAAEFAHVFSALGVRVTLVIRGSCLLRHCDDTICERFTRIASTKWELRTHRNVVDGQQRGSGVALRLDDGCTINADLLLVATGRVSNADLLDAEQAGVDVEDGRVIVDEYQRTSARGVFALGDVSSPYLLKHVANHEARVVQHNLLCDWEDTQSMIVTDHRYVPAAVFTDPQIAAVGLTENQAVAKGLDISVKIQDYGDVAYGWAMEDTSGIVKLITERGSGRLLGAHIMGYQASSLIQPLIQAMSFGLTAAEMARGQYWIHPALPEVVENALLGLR

SMILES	CC50 at 60 h [1, 4] [µM]	MIC50 (Mtb H37Ra^lux; [5]) [µM]	IC50 [2, 6] [µM]	MIC50 [3, 7] [µM]	CC50 at 60 h [1, 8] [µM]	MIC50 (Mtb H37Ra^lux; [9]) [µM]	MIC50 [3, 10] [µM]	IC50 [2, 11] [µM]	anti-mycobacterial activity in whole-cell assay (Mtb H37Ra^lux MIC50), in words (Mtb H37Ra^lux)	intracellular activity in macrophage infection assay, in words [3]
COc1nc2ccc(Br)cc2cc1[C@@H](c1ccccc1)[C@@](O)(CCN(C)C)c1cccc2ccccc12 [Bedaquiline, reference compound]	> 50	0.01 (≈ 0.00556 µg/mL)	–	–	–	–	–	–	–	–
CCNc1cc(Oc2ccc(NS(=O)(=O)c3ccc(C)cc3)c(C(=O)O)c2)ccc1NS(=O)(=O)c1ccc(C)cc1 [Respiri-1031]	–	> 25	2.16	> 25	–	–	–	–	–	–
CNc1cc(Oc2ccc(NS(=O)(=O)c3ccc(C)cc3)c(C(=O)O)c2)ccc1NS(=O)(=O)c1ccc(C)cc1 [Respiri-1075]	–	> 25	–	> 25	–	–	–	–	–	–
COc1cccc(-c2nc(N3CCOC[C@@H]3C)nc3c2CCNCC3)c1 [Respiri-1076]	–	–	–	–	> 25	> 25	> 25	–	–	–
C[C@H]1COCCN1c1nc2c(c(-c3ccc(F)cc3)n1)CCNCC2 [Respiri-1077]	–	–	–	–	> 25	> 25	> 25	–	–	–
C[C@H]1COCCN1c1nc2c(c(-c3ccc(Cl)cc3)n1)CCNCC2 [Respiri-1078]	–	–	–	–	13.7	11.9 (≈ 4.26 µg/mL)	14.1 (≈ 5.05 µg/mL)	4.47	activity	Intracellular activity was detected
C[C@H]1COCCN1c1nc2c(c(-c3cc4ccccc4o3)n1)CCNCC2 [Respiri-1079]	–	–	–	–	11	5.7 (≈ 2.08 µg/mL)	12.2 (≈ 4.44 µg/mL)	1.99	activity	Intracellular activity was detected
C[C@H]1COCCN1c1nc2c(c(-c3ccc4c(c3)OCO4)n1)CCNCC2 [Respiri-1080]	–	–	–	–	> 5	> 25	> 25	5.98	–	–
C[C@H]1COCCN1c1nc2c(c(-c3ccc4ncccc4c3)n1)CCNCC2 [Respiri-1081]	–	–	–	–	> 25	> 25	> 25	3.75	–	–
C[C@H]1COCCN1c1nc2c(c(-c3ccc4ccccc4c3)n1)CCNCC2 [Respiri-1082]	–	–	–	–	9.69	4.02 (≈ 1.51 µg/mL)	7.16 (≈ 2.68 µg/mL)	3.03	activity	Intracellular activity was detected
C[C@H]1COCCN1c1nc2c(c(-c3ccnc4ccccc34)n1)CCNCC2 [Respiri-1083]	–	–	–	–	> 25	> 25	> 25	2.34	–	–
C[C@H]1COCCN1c1cc(-c2cc3ccccc3s2)c2c(n1)CCNCC2 [Respiri-1084]	–	–	–	–	11.9	> 25	10.2 (≈ 3.88 µg/mL)	2.88	–	Intracellular activity was detected
C[C@H]1COCCN1c1nc2c(c(-c3csc4ccccc34)n1)CCNCC2 [Respiri-1093]	–	–	–	–	> 25	9.94 (≈ 3.78 µg/mL)	> 25	6.22	activity	–
CCCNc1cc(Oc2ccc(NS(=O)(=O)c3ccc(C)cc3)c(C(=O)O)c2)ccc1NS(=O)(=O)c1ccc(C)cc1 [Respiri-1179]	> 50	> 25	1.13	> 25	–	–	–	–	–	–
CCN(CC)c1cc(Oc2ccc(NS(=O)(=O)c3ccc(C)cc3)c(C(=O)O)c2)ccc1NS(=O)(=O)c1ccc(C)cc1 [Respiri-1180]	> 50	> 25	2.38	–	–	–	–	–	–	–
CCCCNc1cc(Oc2ccc(NS(=O)(=O)c3ccc(C)cc3)c(C(=O)O)c2)ccc1NS(=O)(=O)c1ccc(C)cc1 [Respiri-1181]	> 50	> 25	1.66	> 25	–	–	–	–	–	–
O=C1C=CC(=O)N1Cc1ccc2c(c1)OCO2 [Respiri-1208]	15.2	> 25	4.83	–	–	–	–	–	–	–
CN1C(=O)C2N=CNC2N(C)C1=O (centres unmarked) [Respiri-1209]	> 50	> 25	5.63	> 25	–	–	–	–	–	–
Cn1ccnc1C(=O)c1nccn1C [Respiri-1210]	> 50	> 25	6.11	> 25	–	–	–	–	–	–
Cc1ccn(-c2ncccn2)c(=O)c1C#N [Respiri-1211]	> 50	> 25	13	> 25	–	–	–	–	–	–
CC/C(=C(\c1ccccc1)c1ccc(OCCN(C)C)cc1)c1ccccc1 [Tamoxifen, reference compound]	4.54	–	–	–	–	–	–	–	–	–

From paper PMC10913476, “A high-throughput target-based screening approach for the identification and assessment of Mycobacterium tuberculosis mycothione reductase inhibitors” (Microbiology Spectrum, 2024)
